Assay: gradient 5% acetonitrile 3 min, to 50% in 2 min, to 85% in 15 min, held 3 min, 100 µL/min
Conditions: column: Zorbax Extend-C18 2.1 x 50 mm; eluents: water / acetonitrile, 0.1% formic acid
In short: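 In both positive and negative ionization mode, a quadrupole time-of-flight mass spectrometer coupled to HPLC analyzed pure standards run in mixtures of ~100 molecules. The Zorbax Extend-C18 column (2.1 × 50 mm, 1.8 μm) was operated at 100 μL/min with water and acetonitrile, each containing 0.1% formic acid. The dead volume was 40 μL and the dwell volume 900 μL. Retention time came from adduct peaks that were computationally picked and individually inspected by hand.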

RP-LC retention time [s] | Structure (SMILES)
1050 | Cc1cc(C)cc(NC(=O)c2csc(-c3cn(C)c4ncccc34)n2)c1
608 | CS(=O)(=O)NCC1CCN(C(=O)c2ccccc2F)CC1
787 | CC(C)Cc1ccc(S(=O)(=O)N2CC(c3nc(-c4ccncc4)nn3C)C2)cc1
835 | COc1cccc2c1OC1(CCN(C(C)=O)CC1)N1N=C(c3cccs3)CC21 (stereo not given)
621 | CCC(C)NC(=O)CCc1ccc2nc(-c3ccccc3)[nH]c2c1 (stereo not given)
624 | CC(C)NC(=O)N1CCC(c2noc(-c3cnccn3)n2)C1 (stereo not given)
640 | O=C(CCC1CCCN(c2cc(NC3CC3)ncn2)C1)NCc1cccs1 (stereo not given)
596 | Cc1ccc(CN2C[C@@H](CO)[C@H](c3nc(-c4cccnc4)no3)C2)o1
918 | Cc1nc(C(=O)Nc2ccc(F)c(C)c2)c(C)o1
722 | COC(=O)c1ccccc1C(=O)N(Cc1cccnc1)c1nc2ccc(F)cc2s1
613 | O=C(CSc1nc2ccccc2[nH]1)Nc1nccs1
1000 | O=C(CCn1c(=O)oc2ccccc21)N1CC(F)(F)C[C@H]1COc1ccccc1
835 | Cn1cnc2c(C(=O)Nc3ccccc3)nn(-c3ccccc3)c2c1=O
648 | CCC1CN(C(=O)N2CCC(C(=O)NCCCN3CCOCC3)CC2)c2cc(C)ccc2O1 (stereo not given)
613 | O=C(c1noc2c1CCCC2)N1CCN(c2ccccn2)CC1
760 | O=C(NC1CCCC1)C1CC(=O)N(c2ccc3c(c2)CCN3C(=O)C2CCC2)C1 (stereo not given)
606 | CCOc1cc(CN2CCn3c(nn(CC4CC4)c3=O)C2)ccc1O
1110 | CCCCN(C)S(=O)(=O)c1ccccc1-c1nc(-c2ccc(F)cc2)no1
922 | CCOc1ccc(NS(=O)(=O)c2ccc(-c3nnc(C4CCC4)o3)o2)cc1

RP-LC retention time [s] | Structure (SMILES)
876 | O=C(NC1(c2nc(-c3ccncc3)no2)CCCCC1)c1ccc2c(c1)OCO2
668 | CSc1ccc(NC(=O)N2CCN(c3cnn4c(C5CC5)nnc4c3)CC2)cc1
1150 | Cc1ccc(C(=O)N2CCc3nc(-c4ccc(Cl)cc4)ncc3C2)cc1F
880 | CCn1nnc2cc(-c3noc(C4CC(=O)N(c5ccc(C)cc5)C4)n3)ccc21 (stereo not given)
619 | CN1CCN(C(=O)C2CCN(S(=O)(=O)c3cc(C(=O)N4CCCCCC4)cs3)CC2)CC1
915 | CC(C)NC(=O)C1CCN(c2nc3ccc(-c4ccccc4F)nc3s2)CC1
932 | COc1ccc(C2CCCCCN2S(C)(=O)=O)cc1 (stereo not given)
614 | N#Cc1cnn2ccn(C3OC(CO)C(O)C3O)c12 (stereo not given)
732 | COc1ccc(-c2nc(-c3ccc4ncn(C)c4c3)no2)cc1
865 | COc1cc(NC(=O)N2CCCC2c2ccccc2C)cc(OC)c1OC (stereo not given)
588 | O=C(Cc1nc(-c2cccnc2)n[nH]1)NCCc1ccccc1
1100 | CC(C)c1ccc(N2C(=O)C3N=NN(Cc4nc(-c5ccccc5Cl)no4)C3C2=O)cc1 (stereo not given)
910 | O=C(Nc1cnc(N2CCN(c3ccccc3Cl)CC2)c(C(=O)O)c1)c1cccs1
660 | COc1ccc(N2CCCn3c2nc2c3c(=O)n(CC(=O)O)c(=O)n2C)cc1
578 | CC(C(=O)NCCSc1nncn1C)n1nnc2ccccc2c1=O (stereo not given)
886 | O=C(Nc1ccc(F)cc1F)N1CCC(CCNC(=O)C2(c3ccccc3)CC2)CC1
623 | O=C1CCN(C(=O)C2CCN(C(=O)c3ccco3)CC2)CCCCCCN1
781 | Cc1cccc(NC(=O)C2CCN(S(=O)(=O)c3cn(C(C)C)cn3)CC2)c1

Continued, compound first:

Structure (SMILES) | RP-LC retention time [s]
O=C(C1=CN(c2ccc3c(c2)OCCO3)c2cc(F)ccc2S1(=O)=O)N1CCCC1 | 735
COCCNC(=O)C1CN(C(=O)c2ccco2)CC1c1ccc(OC)cc1OC (stereo not given) | 922
NC(=O)COC1CCC12CCN(C(=O)c1ccc3c(c1)OCO3)CC2 (stereo not given) | 662
NC(=O)C1CCN(c2ncnc(N)c2[N+](=O)[O-])CC1 | 512
Fc1cccc(-c2noc(-c3ccc(N4CCN(Cc5ccc6c(c5)OCO6)CC4)nc3)n2)c1 | 834
O=c1ccc(-c2ccco2)nn1CCCNS(=O)(=O)/C=C/c1ccccc1 | 759
CCCn1cc(C(=O)Nc2cccc(F)c2)c(S(=O)(=O)N2CCC(C)CC2)n1 | 1220
CC(CN1CC(=O)NC(=O)C1)N1CC(=O)NC(=O)C1 (stereo not given) | 530
O=C(NCc1ccccn1)c1c2c(nc3ccccc13)C(=O)N(C1CCCCC1)C2 | 626
Cc1coc2cc3oc(=O)c(CC(=O)N4CCC(C(N)=O)CC4)c(C)c3cc12 | 654
O=C(Nc1ccc2c(c1)CCCN2C(=O)C1CC1)c1cc(Br)ccc1Cl | 879
FC(F)(F)c1nc2cc3c(cc2n1Cc1ccc(Br)cc1)OCCO3 | 1080
O=C(NCc1ccco1)Nc1cccn2c(C3CCC3)nnc12 | 694
Cc1cccc2nc(-c3ccc(N4CCOCC4)cc3)c(Nc3ccc4c(c3)OCCO4)n12 | 664
COCCCNC(=O)C1CCN(c2cncnc2N2CCCCC2)CC1 | 606
Cc1ccccc1Nc1c(-c2c(F)cccc2Cl)nc2ccccn12 | 739
Cn1nc(C(=O)NCc2cccs2)ccc1=O | 632
CCCNC(=O)C1CCN(S(=O)(=O)c2ccc3c(c2)sc(=O)n3CCC)CC1 | 824
CC1CCN(S(=O)(=O)c2ccc(-c3nnc(C(=O)NCCC4=CCCCC4)o3)cc2)CC1 | 1190
O=C(NC1CCCCC1)C1CCN(S(=O)(=O)c2ccc3[nH]c(=O)sc3c2)CC1 | 765
O=C(NCc1nc(-c2ccc(NS(=O)(=O)c3ccccc3)cc2)no1)c1cccs1 | 832
COc1ccccc1NC(=O)Cn1cnc2onc(C)c2c1=O | 748
CN(C)CCNC(=O)Cn1cnc2onc(-c3ccc(F)cc3)c2c1=O | 620
Cc1ccc(Nc2c(-c3ccc(Cl)cc3)nc3ccc(Cl)cn23)cc1 | 1060
O=C(CN1CC=C(c2cnn(-c3ccc(F)cc3)c2)CC1)N1CCN(c2ccc(F)cc2)CC1 | 739
CCCNC(=O)C1CCCN(c2nc3ncn(CC(=O)Nc4ccc(Cl)cc4)c(=O)c3s2)C1 (stereo not given) | 741
COCCCNC(=O)CCc1cc2cc(OC)ccc2[nH]c1=O | 611

Structure (SMILES) | RP-LC retention time [s]
CC(C)CN1CCn2cc(S(=O)(=O)NCc3ccccc3Cl)cc2C1=O | 818
COC(=O)c1ccc(C2CC(=O)NC3=C2C(=O)C(C(=O)OC)C(C)C3)cc1 (stereo not given) | 719
COc1ccc(OC)c(NC(=O)Cn2c(N3CCOCC3)nc(C)cc2=O)c1 | 695
Cc1cc(-c2ncc(CC(=O)Nc3ccc(-c4cnccn4)cn3)cc2C)ccn1 | 652
Cc1ccc(C)c(N2CCN(C(=O)c3nc4cccnc4n(C)c3=O)CC2)c1 | 653
Cc1nc(-c2noc(-c3ccc(F)cc3)n2)cn1CC(=O)Nc1ccc2c(c1)CCC2 | 966
COc1ccc2c(c1)C1(CCN(C(=O)C(C)C)C1)C(=O)N2C (stereo not given) | 701
CSc1ccc(-c2nc3cnccn3c2Nc2ccccc2C)cc1 | 974
O=C(Nc1ccc(F)cc1)c1nnc(CSCC(=O)N2CCN(c3ccccn3)CC2)s1 | 657
O=C(Nc1ccc(Cn2cnc(C(=O)NCc3ccc(F)cc3)c2)cc1)c1cccc(F)c1 | 769
CN(C)C(=O)c1ccc2c(c1)nnn2CCNC(=O)Nc1ccccc1 | 626
O=C(Nc1cnc(N2CCCCC2)nc1)C1CCCC1 | 834
CCC(C)CC(=O)N1CCCN(C2=NS(=O)(=O)C(c3ccc(Cl)cc3)=C2C)CC1 (stereo not given) | 944
CCCCNC(=O)c1nc(Nc2ccc(F)cc2)c2ccccc2n1 | 796
CCCc1nnsc1C(=O)NCCCC(=O)Nc1cccc2cccnc12 | 791
Cc1nc2ccn(Cc3cccnc3)c(=O)c2cc1C(=O)NCCCc1ccco1 | 625
CCOC(=O)NCc1nc2ccccc2n1Cc1c(F)cccc1Cl | 613
COc1ccc(S(=O)(=O)N2CCCC(C(=O)NC3CCCCC3)C2)cc1C (stereo not given) | 962
O=C(CN1CCOCC1)Nc1ccc(Br)cc1 | 556
COc1cccc(CNC(=O)C2(C)CCCN(C(=O)Nc3cccc(C)c3C)C2)c1 (stereo not given) | 855
Cc1ccc(Nc2c(-c3ccc([N+](=O)[O-])cc3)nc3ccc(Cl)cn23)cc1 | 1100
Cc1cc(N2CCCC2)nc(N2CCN(C(=O)c3ccc(Br)cc3)CC2)n1 | 713
CN(C(=O)Cn1cnc2c(-c3ccccc3)csc2c1=O)c1ccccc1 | 911
Cc1nc(NC(=O)c2ccc(-n3ccnc3)nn2)sc1C | 589
COc1ccc(NC(=O)NC(C(=O)N2CCc3ccccc32)C(C)C)cc1OC (stereo not given) | 830
Cc1ccc(NC(=O)Cn2nc(N3CCSCC3)c3ccccc3c2=O)cc1 | 1170
